Test results: paper PMC7336998, “Discovery of secondary sulphonamides as IDO1 inhibitors with potent antitumour effects in vivo” (Journal of Enzyme Inhibition and Medicinal Chemistry, 2020)

Test system: CT26 colon carcinoma
Experiment: CT26 colon carcinoma xenograft in immunodeficient BALB/c nude mice
Assay type: in vivo, mouse
Method: Eight-week-old male BALB/c nude mice, weighing 18–22 g, were supplied by Model Animal Research Centre of Nanjing University (Nanjing, China). 1 × 10^7/ml and 1 × 10^6 CT26 cells (in 0.1 ml PBS) were injected subcutaneously into the right flanks of mice. After CT26 xenograft BALB/c nude mouse model was established, all mice were randomly divided into three groups (n = 8). 5d (12.5 mg/kg) were administered (i.g) every day and 5-FU (25 mg/kg) awere administered (i.p) every three days. The following experimental procedures were similar to the described above.
For immunohistochemistry staining, the sections were deparaffinized, rehydrated, and washed in 1% PBS-Tween 20, and then treated with 2% hydrogen peroxide, blocked with 3% goat serum (Life Technology, 16210–064) and incubated for 2 h at room temperature with specific primary antibodies. Then the slides were incubated with streptavidin-HRP (Shanghai Gene Company, GK500705) for 40 min, then stained with DAB (Shanghai Gene Company, GK500705) substrate and counter-stained with haematoxylin. Images were acquired by microscopy (Olympus IX51).
Then, in order to clarify whether the in vivo antitumour efficacy of compound 5d was related to the mouse immune system, we repeated the above experiment in immunodeficient nude mice. Briefly, BALB/c nude mice bearing established CT26 colon carcinoma xenograft were treated with compound 5d and 5-FU for 10 days.
Figure 8. […] 1 × 10^6 CT26 cells were transplanted subcutaneously into the armpit of immunodeficient BALB/c nude mice. Three days after transplantation, mice were randomly allocated to vehicle control or treatment groups (n = 8). Drugs were administered on days 1–9. (A) Tumour volume and mouse body weight (B) were recorded. After sacrifice, solid tumours were separated and weighed (C, D). Data represent mean ± SEM, n = 8, *p < 0.05, **p < 0.01 vs vehicle.
To verify the above conclusions, we further performed H&E and IHC staining on the nude mouse CT26 tumour tissues. […] These findings further supported the above conclusions.

[1] = nude mouse CT26 tumour tissue, 12.5 mg/kg i.g

Structure (SMILES): C=CC(=O)Nc1ccc(S(=O)(=O)NCc2cccc(Cl)c2)cc1 [5d, N-(4-(N-(3-Chlorobenzyl)sulfamoyl)phenyl)acrylamide]
- tumour growth (BALB/c nude mice, 12.5 mg/kg i.g every day, vs vehicle): did not block tumour growth
- expression of PCNA [1]: had no influence on the expression of PCNA
- tumour cell morphology (H&E staining) [1]: remained intact morphology
